From paper PMC10064330, “Reversible Dual-Covalent Molecular Locking of the 14-3-3/ERRγ Protein–Protein Interaction as a Molecular Glue Drug Discovery Approach” (Journal of the American Chemical Society, 2023)

Molecular target: T1, 14-3-3γ/ERRγ complex (Homo sapiens, UniProt P61981+P62508)
T1 construct: made in house; host or cells: E. coli NiCo21 (DE3)
Experiment: Intact mass spectrometry (QTOF-MS) crosslinking of 14-3-3γ and ERRγ
Assay type: biochemical
Details: 14-3-3γ 5 μM; for consumption of apo-14-3-3γ into crosslinked ternary complex: ERRγ 25 μM, compound 50 μM, NaCNBH3 reduction, 4 h
Method: To further confirm the covalent crosslinking in solution, we performed intact mass spectrometry (MS) on the 14-3-3γ/ERRγ/5 and the 14-3-3γ/ERRγ/10 protein complexes. To ensure detection of the acid-labile imine-bonded complexes, the covalent imine bond was reduced in situ to the corresponding secondary amine using sodium cyanoborohydride. Samples were incrementally taken over 4 h and analyzed with high-resolution MS to determine crosslinking of the 14-3-3γ/ERRγ complex (Figure 2f–h and Figures S8 and S9). Intact MS analysis confirmed time-dependent crosslinking of the ternary complex (14-3-3γ/ERRγ/lock). […] A similar result was also observed for 10 (calculated mass: 33,080.4 Da) (Figure S11a–c).
Figure S8a. QTOF-MS analysis of 14-3-3/ERRg/5 ternary complex formation. LC-MS analysis of time-dependent crosslinking experiment of 14-3-3γ (5 µM) and ERRγ (25 µM) phosphopeptide by compound 5 (50 µM). Controls of just apo 14-3-3γ protein and protein incubated with compound 5 without ERRγ peptide are added. (Left) Chromatograms obtained for each sample after x amount of incubation. […] Calculated mass 14 -3-3γ […]
Figure S9. […] Based on the determined peak intensity of apo 14-3-3γ (peak A) and 14-3-3γ in complex with ERRg and staple 5 (peak B), the percentage of ternary complex is determined for each time point. […]
Different Scanning Fluorimetry (DSF) assays were performed using 40 µL samples containing 5 µM 14-3-3γ, 50 µM ERRγ pS179 9-mer peptide, 200 µM compound (or 1% DMSO) and 5x ProteoOrange (Lumiprobe, 5000x stock in DMSO) in 10 mM Hepes, 150 mM NaCl, 50 µM TCEP (pH 8.0). […] Fluorescence intensity was determined using excitation 470/40 nm and emission 570/20 nm filters. Based on these melting curves, the negative derivative melting curve is obtained from which the melting temperature Tm was determined. ΔTm values represent the differences in melting temperature relative to the DMSO control. All described melting temperatures are based on three independent experiments from which the average and standard deviations were determined using excel. […]

T1 sequence (P61981 whole entry, other chains not shown): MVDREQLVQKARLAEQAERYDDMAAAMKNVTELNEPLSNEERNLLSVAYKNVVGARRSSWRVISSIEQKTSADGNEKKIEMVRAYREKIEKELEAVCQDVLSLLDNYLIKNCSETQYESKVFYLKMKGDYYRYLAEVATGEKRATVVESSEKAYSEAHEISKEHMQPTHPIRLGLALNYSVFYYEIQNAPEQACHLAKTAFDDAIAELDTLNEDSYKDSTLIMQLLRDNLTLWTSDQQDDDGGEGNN

Row | Compound | consumption of apo-14-3-3γ into crosslinked ternary complex | crosslinking of 14-3-3/ERRγ in isolation (only ERRγ phosphopeptide 10 μM, 5 50 μM)
1 | CN(C)CCSSCCN(C)C(=O)c1ccc(C=O)c(F)c1 [compound 5] | near quantitative consumption of apo-14-3-3γ | ~70%
2 | CN(C)CCSSCCN(C)C(=O)c1cc(Br)cc(C=O)c1 [compound 10] | complete consumption of apo-14-3-3γ was not observed | 
